Results: PubChem BioAssay AID236 (DTP/NCI, 2004)
Values joined by “and” are separate entries in the source; they are usually repeats but may differ in a detail not shown here. Identical values can stand only once. Toxic doses and inconclusive results are not listed.

System: AK4 lymphoid leukemia ip, C3AKF1 mice, survival
Experiment: NCI In Vivo Anticancer Drug Screen. Data for tumor model AK4 Lymphoid Leukemia (intraperitoneal) in C3AKF1 (CHKRF1) mice
Conditions: endpoint: median survival time, higher = longer survival
Procedure: The antitumor activity of compounds was measured in mice bearing transplantable tumors. Survival or tumor size were measured and the results are expressed as the measurement made in the treated group (T) divided by the measurement made in the vehicle treated control group (C). The tumor model used in this assay is AK4 Lymphoid Leukemia (intraperitoneal) in C3AKF1 (CHKRF1) mice

[1] = dose: 3.13 mg/kg/injection, schedule: Q01DX010 (ip), vehicle: saline
[2] = dose: 6.25 mg/kg/injection, schedule: Q01DX010 (ip), vehicle: saline
[3] = dose: 12.5 mg/kg/injection, schedule: Q01DX010 (ip), vehicle: saline
[4] = dose: 25.0 mg/kg/injection, schedule: Q01DX010 (ip), vehicle: saline
[5] = dose: 200.0 mg/kg/injection, schedule: Q01DX010 (ip), vehicle: saline
[6] = dose: 50.0 mg/kg/injection, schedule: Q01DX010 (ip), vehicle: saline
[7] = dose: 100.0 mg/kg/injection, schedule: Q01DX010 (ip), vehicle: saline
[8] = dose: 125.0 mg/kg/injection, schedule: Q01DX010 (ip), vehicle: saline
[9] = dose: 250.0 mg/kg/injection, schedule: Q01DX010 (ip), vehicle: saline
[10] = dose: 500.0 mg/kg/injection, schedule: Q01DX010 (ip), vehicle: saline
[11] = dose: 2.5 mg/kg/injection, schedule: Q01DX010 (ip), vehicle: saline
[12] = dose: 10.0 mg/kg/injection, schedule: Q01DX010 (ip), vehicle: saline
[13] = dose: 20.0 mg/kg/injection, schedule: Q01DX010 (ip), vehicle: saline
[14] = dose: 5.0 mg/kg/injection, schedule: Q01DX010 (ip), vehicle: saline
[15] = dose: 62.5 micrograms/kg/injection, schedule: Q01DX010 (ip), vehicle: saline
[16] = dose: 40.0 mg/kg/injection, schedule: Q01DX010 (ip), vehicle: saline

Nc1nc(N)c2nc(CNc3ccc(C(=O)NC(CCC(=O)O)C(=O)O)cc3)cnc2n1 (stereo unspecified)
T/C (dose: 0.05 mg/kg/injection, schedule: Q01DX010 (ip), vehicle: other): 120 % of control
T/C (dose: 0.1 mg/kg/injection, schedule: Q01DX010 (ip), vehicle: other): 160 % of control and 215 % of control
T/C (dose: 0.2 mg/kg/injection, schedule: Q01DX010 (ip), vehicle: other): 180 % of control and 300 % of control

Cc1cc2nc3c(=O)[nH]c(=O)nc-3n(CC(O)C(O)C(O)C(O)CO)c2cc1C (stereo unspecified)
T/C [1]: 105 % of control
T/C [2]: 111 % of control
T/C [3]: 105 % of control
T/C [4]: 100 % of control and 105 % of control
T/C [5]: 88 % of control

C[n+]1c2ccccc2nc2c(N)cc(N)cc21
T/C (dose: 12.0 mg/kg/injection, schedule: Q01DX010 (ip), vehicle: saline): 106 % of control
T/C (dose: 18.0 mg/kg/injection, schedule: Q01DX010 (ip), vehicle: saline): 106 % of control
T/C (dose: 27.0 mg/kg/injection, schedule: Q01DX010 (ip), vehicle: saline): 100 % of control

O=C(O)CCCc1ccc(N(CCCl)CCCl)cc1
T/C [1]: 100 % of control
T/C [2]: 113 % of control and 120 % of control
T/C [3]: 95 % of control

COS(C)(=O)=O
T/C [3]: 100 % of control and 105 % of control
T/C [4]: 100 % of control
T/C [6]: 88 % of control and 116 % of control
T/C [7]: 100 % of control and 111 % of control

Cc1n[nH]c(=O)[nH]c1=O
T/C [8]: 87 % of control
T/C [9]: 100 % of control
T/C [10]: 87 % of control
T/C (dose: 1000.0 mg/kg/injection, schedule: Q01DX010 (ip), vehicle: saline): 87 % of control

O=C(O)c1[nH]c(=O)[nH]c(=O)c1F
T/C (dose: 1.25 mg/kg/injection, schedule: Q01DX010 (ip), vehicle: saline): 105 % of control
T/C [11]: 122 % of control
T/C [12]: 155 % of control and 205 % of control
T/C [13]: 111 % of control

S=P(N1CCOCC1)(N1CC1)N1CC1
T/C [11]: 94 % of control
T/C [14]: 105 % of control
T/C [12]: 100 % of control
T/C [13]: 94 % of control

[I][Hg][CH2]C1COC([CH2][Hg][I])CO1 (stereo unspecified)
T/C (dose: 0.78 mg/kg/injection, schedule: Q01DX010 (ip), vehicle: saline): 106 % of control
T/C (dose: 1.56 mg/kg/injection, schedule: Q01DX010 (ip), vehicle: saline): 100 % of control
T/C [1]: 100 % of control
T/C [2]: 100 % of control
T/C [3]: 88 % of control

CCCCn1cnc2c(=S)nc[nH]c21
T/C (dose: 16.0 mg/kg/injection, schedule: Q01DX010 (ip), vehicle: saline): 100 % of control
T/C (dose: 32.0 mg/kg/injection, schedule: Q01DX010 (ip), vehicle: saline): 90 % of control and 122 % of control
T/C (dose: 64.0 mg/kg/injection, schedule: Q01DX010 (ip), vehicle: saline): 90 % of control and 111 % of control
T/C (dose: 128.0 mg/kg/injection, schedule: Q01DX010 (ip), vehicle: saline): 94 % of control and 100 % of control

CC(=O)Nc1ccc2nc3ccc(NC(C)=O)cc3[n+](-c3ccccc3)c2c1
T/C [6]: 117 % of control
T/C [7]: 105 % of control
T/C [5]: 117 % of control
T/C (dose: 400.0 mg/kg/injection, schedule: Q01DX010 (ip), vehicle: saline): 105 % of control

N#Cc1cn(C2OC(CO)C(O)C2O)c2ncnc(N)c12 (stereo unspecified)
T/C (dose: 31.3 micrograms/kg/injection, schedule: Q01DX010 (ip), vehicle: saline): 100 % of control
T/C [15]: 100 % of control
T/C (dose: 125.0 micrograms/kg/injection, schedule: Q01DX010 (ip), vehicle: saline): 118 % of control
T/C (dose: 250.0 micrograms/kg/injection, schedule: Q01DX010 (ip), vehicle: saline): 100 % of control

O=c1c(O)cccc2cc(O)c(O)c(O)c12
T/C [4]: 94 % of control

CN[C@H]1CCc2cc(OC)c(OC)c(OC)c2-c2ccc(OC)c(=O)cc21
T/C (dose: 0.63 mg/kg/injection, schedule: Q01DX010 (ip), vehicle: other): 95 % of control and 100 % of control
T/C (dose: 1.25 mg/kg/injection, schedule: Q01DX010 (ip), vehicle: other): 95 % of control and 100 % of control
T/C (dose: 2.5 mg/kg/injection, schedule: Q01DX010 (ip), vehicle: other): 90 % of control and 100 % of control
T/C (dose: 5.0 mg/kg/injection, schedule: Q01DX010 (ip), vehicle: other): 100 % of control and 104 % of control

CN(C)c1ccc(/C=C/c2ccnc3ccccc23)cc1
T/C [14]: 111 % of control
T/C [12]: 105 % of control
T/C [13]: 94 % of control
T/C [16]: 100 % of control

CN(Cc1cnc2nc(N)nc(N)c2n1)c1ccc(C(=O)N[C@@H](CCC(=O)O)C(=O)O)cc1
T/C (dose: 0.19 mg/kg/injection, schedule: Q01DX Z (ip), vehicle: saline): 120 % of control
T/C (dose: 0.38 mg/kg/injection, schedule: Q01DX010 (ip), vehicle: other): 155 % of control and 181 % of control
T/C (dose: 0.38 mg/kg/injection, schedule: Q01DX Z (ip), vehicle: saline): 180 % of control
T/C (dose: 0.75 mg/kg/injection, schedule: Q01DX010 (ip), vehicle: other): 160 % of control and 181 % of control
T/C (dose: 0.75 mg/kg/injection, schedule: Q01DX Z (ip), vehicle: saline): 253 % of control and 361 % of control
T/C (dose: 1.5 mg/kg/injection, schedule: Q01DX010 (ip), vehicle: other): 185 % of control and 256 % of control
T/C (dose: 3.0 mg/kg/injection, schedule: Q01DX010 (ip), vehicle: other): 175 % of control

Oc1cc(CN(CCCl)CCCl)c(O)cc1CN(CCCl)CCCl
T/C [12]: 100 % of control

C#CCN(C)Cc1ccccc1
T/C [6]: 88 % of control
T/C [7]: 88 % of control
T/C [5]: 88 % of control

CC[C@]1(O)C[C@H]2CN(CCc3c([nH]c4ccccc34)[C@@](C(=O)OC)(c3cc4c(cc3OC)N(C=O)[C@H]3[C@@](O)(C(=O)OC)[C@H](OC(C)=O)[C@]5(CC)C=CCN6CC[C@]43[C@@H]65)C2)C1
T/C (dose: 0.03 mg/kg/injection, schedule: Q01DX010 (ip), vehicle: saline): 100 % of control and 115 % of control
T/C (dose: 0.03 mg/kg/injection, schedule: Q01DX Z (ip), vehicle: saline): 96 % of control and 106 % of control
T/C (dose: 0.06 mg/kg/injection, schedule: Q01DX010 (ip), vehicle: saline): 90 % of control and 112 % of control
T/C (dose: 0.06 mg/kg/injection, schedule: Q01DX Z (ip), vehicle: saline): 96 % of control and 106 % of control
T/C (dose: 0.12 mg/kg/injection, schedule: Q01DX Z (ip), vehicle: saline): 102 % of control and 106 % of control
T/C (dose: 0.25 mg/kg/injection, schedule: Q01DX010 (ip), vehicle: saline): 115 % of control
T/C (dose: 0.25 mg/kg/injection, schedule: Q01DX Z (ip), vehicle: saline): 102 % of control and 120 % of control
T/C (dose: 0.5 mg/kg/injection, schedule: Q01DX010 (ip), vehicle: saline): 93 % of control
T/C [15]: 112 % of control

CC(=O)O[C@]1(C(C)=O)CC[C@H]2[C@@H]3C[C@H](C)C4=CC(=O)C=C[C@]4(C)[C@@]3(F)[C@@H](O)C[C@@]21C
T/C (dose: 12.5 mg/kg/injection, schedule: Q01DX010 (sc), vehicle: steriod suspending solution): 100 % of control
T/C (dose: 25.0 mg/kg/injection, schedule: Q01DX010 (sc), vehicle: steriod suspending solution): 100 % of control
T/C (dose: 50.0 mg/kg/injection, schedule: Q01DX010 (sc), vehicle: steriod suspending solution): 111 % of control
T/C (dose: 100.0 mg/kg/injection, schedule: Q01DX010 (sc), vehicle: steriod suspending solution): 88 % of control and 100 % of control

CSc1ncnc2nc[nH]c12
T/C [4]: 100 % of control
T/C [6]: 100 % of control
T/C [7]: 100 % of control
T/C [5]: 100 % of control

c1ccc(CCSc2ncnc3nc[nH]c23)cc1
T/C (dose: 62.5 mg/kg/injection, schedule: Q01DX010 (ip), vehicle: saline): 100 % of control
T/C [8]: 100 % of control
T/C [9]: 100 % of control
T/C [10]: 100 % of control

COc1cc(-c2ccc(Nc3ccccc3C(=O)O)c(OC)c2)ccc1Nc1ccccc1C(=O)O
T/C [3]: 112 % of control
T/C [4]: 112 % of control and 122 % of control
T/C [7]: 162 % of control

Cn1c(N)nc2nc[nH]c2c1=S
T/C [14]: 100 % of control
T/C [12]: 100 % of control and 122 % of control
T/C [13]: 88 % of control and 105 % of control
T/C [16]: 88 % of control and 100 % of control
T/C (dose: 80.0 mg/kg/injection, schedule: Q01DX010 (ip), vehicle: saline): 111 % of control
